Measured values from patent US20080009448A1, “Peptide Derivative” (priority 2006, published 2008).

Key:
[1] = test system: MSU induced knee osteoarthritis pain; assay: MSU induced knee osteoarthritis pain model, hind leg paw-pressure ratio; format: in vivo, rat; design: key to AUC of time-course variation of anti-nociceptive activity: AUC of the time course of anti-nociceptive activity as % MPE; conditions: for activity lasting-time: orally administered
Procedure: Experimental animal, male SD type rats, weighing the body weight in the range of 170 to 190 g, were used for the studies. The animals had been kept under constant conditions (room temperature 23±1° C., humidity 52±2%, 12 hours light-and-dark cycle having light time 7:00 to 19:00 and dark time 19:00 to 7:00) until used for an experiment. The animals were fed the mouse solid diet (F2, Funabashi farm. Funabashi, Japan) with unrestricted tap water intake, and kept in captivity for at least more than two days in a laboratory.
Any test drugs were dissolved in Ringer's solution (Fuso Yakuhin) to be used.
MSU was suspended with the suspension solution (10% of polyoxyethylene sorbitan mono-oleate (Tween 80: Nakarai Tesk) as 0.1 g per 1 mL. The animal was anesthetized with diethyl ether and after the surface of its left hind leg knee joint was wiped with 70% ethanol cotton, a porous administration of the suspension solution above noted was conducted into the cavity of let hind leg knee joint.
Pressures to both hind leg paw were measured using a paw-pressure measurement apparatus and recorded. Measurement time at respective times was 4.5 seconds. Calculated paw-pressure ratio (ppr) is a value calculated by dividing the pressure on the left hind leg by the pressure on the right hind leg according to the measured pressures on both hind legs.
The anti-nociceptive effect was evaluated quantitatively by calculating % MPE (% of maximum possible effect) according to the following formula. [formula]
In the formula, ppr 0 and ppr 1 are respective paw-pressure ratios on both hind legs before and after administration. ED50 value of anti-nociceptive activity was calculated using GraphPad Prism data-graph processing software version 4.0, San Diego, Calif., USA.
The strength of anti-nociceptive activity was represented by calculating the time-course variation of anti-nociceptive activity AUC using GraphPad Prism noted above.
Paw-pressure was measured twice at 4 hours after administration to provide ppr by calculation and the average of those values was both hind leg paw-pressure ratio before the drug administration. After the measurement of both hind leg paw-pressure before the drug administration, 0.1 mL of Ringer's solution or a test drug in Ringer's solution per 100 g rat body weight was orally administered, and then a paw-pressure was measured once every unit time after the oral administration.
Statistical processing was conducted using GraphPad Prism. After the two-way layout dispersion analysis, the hazard-ratio of P<0.05 was decided to be a significant difference according to Bonferroni post-test. The hazard-ratios were distinguished into less than 5% (P<0.05) and less than 1% (P<0.01) and represented as “*” and “**” in the same manner conducted for the Tail-flick method.

[2] = test system: heat nociceptive stimulation; assay: Anti-nociceptive activity test, tail-flick method; format: in vivo, mouse
Procedure: (1) Experimental animal, male ddy mice (Japan SLC), weighing the body weight in the range of 22 to 25 g, were used for the studies. The animals had been kept under constant conditions (room temperature 22±2° C., humidity 55±5%, 12 hours light-and-dark cycle having light time 9:00 to 21:00 and dark time 21:00 to 9:00) until used for an experiment. The animals were fed the mouse solid diet (F2, Funabashi farm. Funabashi, Japan) with unrestricted tap water intake.
SS8225-01, 02, 03 04, 05, 06, 07 and 08 as examples and SS8225-09, 10, 11 and 12 as comparison examples were used as the administered drugs. […] In addition only Liger solution was administered as an experimental control. The animals were left for 60 minutes in the plastic cage to become familiar to the environment prior to the test in which measured a latent time for each mouse before drug administration in accordance with a tail-flick method noted below. Heat was radiated to a part of each mouse tail which is 2 cm from the end of its tail. Each of heat radiation periods before beginning of tail-flick was measured as a false pain threshold. Mice which responded to the stimulation within 2.5 to 3.5 seconds were pre-selected for the test. Administration solution under one administration condition for one kind of drug was administered to one experimental animal group including 10 mice. After the body weight of each mouse was measured, each volume of the administration solution was adjusted to be 0.1 mL/10 g of mouse body weight and then the solution was administered. The administration methods were two methods of subcutaneous administration (s. c.) and oral administration (p. o.). On subcutaneous administration, the administration solution of 0.1 mL per 10 g of body weight (0.1 mL/10 g) was injected into the back of the mouse using 27 gauge needle. On oral administration, the administration solution of 0.1 mL per 10 g of body weight (0.1 mL/10 g) was administered using an oral sonde.
Heat was radiated to a part of each mouse's tail of respective experimental group, which is 2 cm from the end of its tail, at 15, 30 and 60 minutes after the drug administration according to the preset measurement interval and a latent time until respective mouse swung its tail was measured as a false pain threshold value. The maximum stimulation period (cut-off-time) was set as 10 seconds to minimize the damage to the stimulation part. The anti-nociceptive effect was evaluated quantitatively by calculating % MPE (% of maximum possible effect) according to the following formula. [formula] T1: A latent time until beginning of tail-flick before respective drug administration (seconds) T2: A latent time until beginning of tail-flick after respective drug administration (seconds) Tc: A maximum stimulation period (cut-off-time)
The graphs (FIG. 1, FIG. 3, FIG. 5, FIG. 7, FIG. 9, FIG. 11, FIG. 13, FIG. 15, FIG. 17, FIG. 19, FIG. 21, FIG. 23, FIG. 25, FIG. 27, FIG. 29, FIG. 31, FIG. 33 and FIG. 35) showing a time-course variation of % MPE were created, in which a vertical axis is an average value with a standard error (means ±S. E. M.) obtained by calculation of % MPE of respective animals of 10 mice every administration condition of respective drugs and a horizontal axis is a time after administration. After treating % MPE data of each animal of experimental groups with respective doses and % MPE data of each animal of the experimental group with a control Ringer's solution at the same measurement time every drugs using the two-way layout dispersion analysis (two-way ANOVA), the hazard-ratio of P<0.05 was decided to be a significant difference according to Bonferroni post-test.
A lasting time of anti-nociceptive activity of each drug in the present description is the lasting time of anti-nociceptive activity under the dose condition providing the longest lasting time.
ED50 is represented in the unit of mg/Kg.

[3] = rat, MSU knee model, oral 15 mg/kg
[4] = rat, MSU knee model, oral 30 mg/kg
[5] = mice, p.o., at activity-peak time, parentheses = 95% confidence limit
[6] = mice, s.c., at activity-peak time, parentheses = 95% confidence limit

Compound	activity peak ([1]; rat, MSU knee model, oral) [min]	AUC of time-course variation of anti-nociceptive activity [1, 3]	AUC of time-course variation of anti-nociceptive activity [1, 4]	activity lasting-time ([1]; rat, MSU knee model) [min]	activity-peak time after the oral administration ([2]; mice, p.o.) [min]	Oral ED50 [2, 5]	activity-peak time after the subcutaneous administration ([2]; mice, s.c.) [min]	Subcutaneous ED50 [2, 6] [mg/kg]	other results
CN1CC[C@]23c4c5ccc(O)c4O[C@H]2[C@@H](O)C=C[C@H]3[C@H]1C5 [Morphine]	90	1724	4485	300	45	29.9 (26.37-33.95) mg/Kg	30	2.51	AUC of time-course variation of anti-nociceptive activity ([1]; rat, MSU knee model, oral 60 mg/kg): 13883; ED50 ([1]; rat, MSU knee model, oral, %MPE, range in parentheses, read-out: ED50 value at activity peak): 37.2 mg/kg; ED50 ([2]; Mus musculus, po, mice, p.o., at activity-peak time, parentheses = 95% confidence limit, read-out: Oral ED50): 29.9 mg/kg; lasting time of anti-nociceptive activity ([2]; p.o., dose of 67.5 mg/Kg): 5 h; lasting time of anti-nociceptive activity ([2]; s.c., dose of 5 mg/Kg): 1.5 h
Iminoethyl-[Tyr]-[D-Met(O)]-[Phe]-[N-MeβAla]-NHCH3 [SS8225-07]	120	7894	20162	360	180	2.51 mg/kg	60	0.05	anti-nociceptive activity compared with morphine and oxycodone ([1]; knee osteoarthritis model, FIGS. 77 and 78): stronger than morphine, and stronger than or equal to oxycodone; activity lasting-time, times longer than for morphine ([1]; rat, MSU knee model, oral): 1.2 times; AUC of time-course variation of anti-nociceptive activity ([1]; rat, MSU knee model, oral 7.5 mg/kg): 2919; ED50 value at activity peak ([1]; rat, MSU knee model, oral, %MPE, range in parentheses): 16.95 (3.17-90.59) mg/Kg; anti-nociceptive activities, times stronger than for morphine ([1]; rat, MSU knee model, oral, from ED50 of AUCs): ~2.1 times; ED50 of AUCs ([1]; rat, MSU knee model, oral, range in parentheses): 40.38 (31.08-52.48) mg/kg; anti-nociceptive activity lasting-times, times longer than for morphine ([1]; rat, MSU knee model, oral, stated after ED50 at activity peak): 2.2 times; dosage providing the same AUC, as part of morphine dosage ([2]; AUC of %MPE vs time, either oral or subcutaneous administration (FIG. 37, 38)): a half through one fiftieth; lasting time of anti-nociceptive activity ([2]; p.o., dose of 10 mg/Kg): 8 h; lasting time of anti-nociceptive activity ([2]; s.c., dose of 0.125 mg/Kg): 5 h
